Experiments:
Assay in all cases: Kinase selectivity screen
Assay type in all cases: biochemical
CHK2 = CHK2 (Homo sapiens, UniProt O96017); conditions: CHK2, 10 μM
Method: (§1) The substantially less demanding synthesis of ICL-CCIC-0019 compared with MN58B bears additional advantages. […] This consequently diminished intracellular PCho concentration, and importantly, the incorporation of [^3H]-choline into lipids (Figure 1D). […] To assess kinase specificity, ICL-CCIC-0019 was tested against a panel of 131 human kinases (Figure 1E and Supplementary Table S1). […] Inhibition greater than 20% was attained for insulin-like growth factor 1 (IGF-1R, 35 ± 7% inhibition), mitogen-activated protein kinase-activated protein kinase 3 (MAPKAP-K3, 33 ± 6%), extracellular signal regulated kinase 8 (ERK8, 31 ± 4%), ribosomal S6 kinase 1 (RSK1, 22 ± 6%), and v-erb-a erythroblastic leukemia viral oncogene homolog 4 (HER4, 21 ± 7%).

PAK2 = PAK2 (Homo sapiens, UniProt Q13177); conditions: PAK2, 10 μM
Method: as §1

CHK1 = CHK1 (Homo sapiens, UniProt O14757); conditions: CHK1, 10 μM
Sequence of CHK1 (O14757 whole entry): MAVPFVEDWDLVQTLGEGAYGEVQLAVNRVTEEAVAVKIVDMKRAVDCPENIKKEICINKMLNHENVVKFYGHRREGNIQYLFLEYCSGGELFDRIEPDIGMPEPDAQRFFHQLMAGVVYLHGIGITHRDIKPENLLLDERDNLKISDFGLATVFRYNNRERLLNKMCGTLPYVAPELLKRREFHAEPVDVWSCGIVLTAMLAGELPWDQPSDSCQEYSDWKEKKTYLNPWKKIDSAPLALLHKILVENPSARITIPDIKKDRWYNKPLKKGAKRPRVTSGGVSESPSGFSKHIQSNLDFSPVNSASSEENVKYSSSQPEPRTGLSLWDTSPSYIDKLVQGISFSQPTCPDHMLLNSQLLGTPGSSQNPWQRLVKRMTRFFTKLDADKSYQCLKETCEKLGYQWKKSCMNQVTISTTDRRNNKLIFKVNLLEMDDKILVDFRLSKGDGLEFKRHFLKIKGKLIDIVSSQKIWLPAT
Method: as §1

SmMLCK = SmMLCK (Homo sapiens, UniProt Q15746)
Method: as §1

IR = IR (Homo sapiens, UniProt P06213)
Method: as §1

TSSK1 = TSSK1 (Homo sapiens, UniProt Q9BXA7); conditions: TSSK1, 10 μM
Sequence of TSSK1 (Q9BXA7 whole entry): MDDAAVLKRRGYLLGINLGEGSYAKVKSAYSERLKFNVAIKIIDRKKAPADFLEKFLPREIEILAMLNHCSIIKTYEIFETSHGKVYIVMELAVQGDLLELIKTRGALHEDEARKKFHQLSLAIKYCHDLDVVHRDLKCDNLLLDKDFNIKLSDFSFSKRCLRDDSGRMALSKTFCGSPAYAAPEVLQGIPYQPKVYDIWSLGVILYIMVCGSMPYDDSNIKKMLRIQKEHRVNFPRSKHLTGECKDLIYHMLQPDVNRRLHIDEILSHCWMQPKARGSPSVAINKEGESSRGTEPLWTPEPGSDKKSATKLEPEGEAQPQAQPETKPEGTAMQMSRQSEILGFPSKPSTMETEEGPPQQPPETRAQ
Method: as §1

PIM2 = PIM2 (Homo sapiens, UniProt Q9P1W9); conditions: PIM2, 10 μM
Sequence of PIM2 (Q9P1W9 whole entry): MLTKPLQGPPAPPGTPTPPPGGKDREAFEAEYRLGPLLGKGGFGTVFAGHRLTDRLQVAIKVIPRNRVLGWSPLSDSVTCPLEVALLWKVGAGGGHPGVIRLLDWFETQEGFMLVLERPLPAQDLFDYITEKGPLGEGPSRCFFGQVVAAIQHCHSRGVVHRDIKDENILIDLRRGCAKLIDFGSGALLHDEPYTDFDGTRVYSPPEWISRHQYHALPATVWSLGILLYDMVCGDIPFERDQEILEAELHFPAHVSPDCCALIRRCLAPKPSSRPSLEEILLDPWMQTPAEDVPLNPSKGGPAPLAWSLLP
Method: as §1

EPH-A2 = EPH-A2 (Homo sapiens, UniProt P29317); conditions: EPH-A2, 10 μM
Method: as §1

ERK2 = ERK2 (Homo sapiens, UniProt P28482); conditions: ERK2, 10 μM
Sequence of ERK2 (P28482 whole entry): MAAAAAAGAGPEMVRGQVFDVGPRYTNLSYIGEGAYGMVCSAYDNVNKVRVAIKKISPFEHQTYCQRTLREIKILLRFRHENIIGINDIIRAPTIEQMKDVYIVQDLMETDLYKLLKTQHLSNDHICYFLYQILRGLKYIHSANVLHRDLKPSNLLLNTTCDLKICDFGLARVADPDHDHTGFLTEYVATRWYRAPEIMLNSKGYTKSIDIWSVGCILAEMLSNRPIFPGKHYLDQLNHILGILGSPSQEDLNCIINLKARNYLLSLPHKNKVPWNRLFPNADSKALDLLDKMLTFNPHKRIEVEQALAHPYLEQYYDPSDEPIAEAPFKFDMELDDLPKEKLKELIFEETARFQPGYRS
Method: as §1

IRAK1 = IRAK1 (Homo sapiens, UniProt P51617); conditions: IRAK1, 10 μM
Method: as §1

IRR = IRR (Homo sapiens, UniProt P14616)
Method: as §1

CAMKKb = CAMKKb (Homo sapiens, UniProt Q96RR4)
Method: as §1

SIK3 = SIK3 (Homo sapiens, UniProt Q9Y2K2); conditions: SIK3, 10 μM
Sequence of SIK3 (Q9Y2K2 whole entry): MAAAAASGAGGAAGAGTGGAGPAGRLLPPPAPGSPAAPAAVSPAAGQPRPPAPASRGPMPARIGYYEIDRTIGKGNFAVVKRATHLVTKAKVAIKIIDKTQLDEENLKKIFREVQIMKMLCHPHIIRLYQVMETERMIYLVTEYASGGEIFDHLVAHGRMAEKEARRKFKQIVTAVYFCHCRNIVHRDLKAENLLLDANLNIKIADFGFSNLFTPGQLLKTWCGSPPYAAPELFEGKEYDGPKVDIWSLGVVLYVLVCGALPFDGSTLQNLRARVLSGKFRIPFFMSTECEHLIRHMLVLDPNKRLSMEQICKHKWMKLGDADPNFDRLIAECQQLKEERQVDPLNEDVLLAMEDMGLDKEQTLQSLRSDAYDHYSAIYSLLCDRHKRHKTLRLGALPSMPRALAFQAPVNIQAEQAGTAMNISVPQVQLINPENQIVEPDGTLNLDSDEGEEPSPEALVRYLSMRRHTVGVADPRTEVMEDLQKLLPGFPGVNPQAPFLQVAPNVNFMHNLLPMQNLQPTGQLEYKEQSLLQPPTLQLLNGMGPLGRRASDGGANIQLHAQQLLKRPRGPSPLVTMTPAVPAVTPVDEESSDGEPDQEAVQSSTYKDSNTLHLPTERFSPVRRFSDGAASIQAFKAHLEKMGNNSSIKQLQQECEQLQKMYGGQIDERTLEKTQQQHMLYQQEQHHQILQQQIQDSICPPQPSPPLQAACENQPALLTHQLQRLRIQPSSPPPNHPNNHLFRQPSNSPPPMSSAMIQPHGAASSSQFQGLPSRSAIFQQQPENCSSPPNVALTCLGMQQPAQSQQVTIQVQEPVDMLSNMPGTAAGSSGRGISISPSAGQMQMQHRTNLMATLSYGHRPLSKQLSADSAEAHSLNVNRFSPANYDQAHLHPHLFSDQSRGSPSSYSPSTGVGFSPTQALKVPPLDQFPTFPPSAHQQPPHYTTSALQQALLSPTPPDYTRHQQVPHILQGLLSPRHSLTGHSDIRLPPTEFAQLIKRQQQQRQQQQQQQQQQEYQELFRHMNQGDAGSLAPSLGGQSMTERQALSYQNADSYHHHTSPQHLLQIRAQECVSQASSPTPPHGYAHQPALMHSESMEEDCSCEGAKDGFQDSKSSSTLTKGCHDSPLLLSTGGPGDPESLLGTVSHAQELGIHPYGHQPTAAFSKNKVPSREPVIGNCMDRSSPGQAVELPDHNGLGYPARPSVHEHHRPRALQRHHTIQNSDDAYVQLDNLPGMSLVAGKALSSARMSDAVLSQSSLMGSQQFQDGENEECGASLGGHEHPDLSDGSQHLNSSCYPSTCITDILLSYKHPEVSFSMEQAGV
Method: as §1

SGK1 = SGK1 (Homo sapiens, UniProt O00141); conditions: SGK1, 10 μM
Method: as §1

NEK6 = NEK6 (Homo sapiens, UniProt Q9HC98); conditions: NEK6, 10 μM
Method: as §1

JNK2 = JNK2 (Homo sapiens, UniProt P45984); conditions: JNK2, 10 μM
Method: as §1

EPH-A4 = EPH-A4 (Homo sapiens, UniProt P54764); conditions: EPH-A4, 10 μM
Method: as §1

MARK2 = MARK2 (Homo sapiens, UniProt Q7KZI7); conditions: MARK2, 10 μM
Method: as §1

JNK1 = JNK1 (Homo sapiens, UniProt P45983); conditions: JNK1, 10 μM
Method: as §1

LKB1 = LKB1 (Homo sapiens, UniProt Q15831); conditions: LKB1, 10 μM
Method: as §1

TESK1 = TESK1 (Homo sapiens, UniProt Q15569); conditions: TESK1, 10 μM
Method: as §1

IKKb = IKKb (Homo sapiens, UniProt O14920)
Method: as §1

PKBa = PKBa (Homo sapiens, UniProt P31749)
Method: as §1

MARK3 = MARK3 (Homo sapiens, UniProt P27448); conditions: MARK3, 10 μM
Sequence of MARK3 (P27448 whole entry): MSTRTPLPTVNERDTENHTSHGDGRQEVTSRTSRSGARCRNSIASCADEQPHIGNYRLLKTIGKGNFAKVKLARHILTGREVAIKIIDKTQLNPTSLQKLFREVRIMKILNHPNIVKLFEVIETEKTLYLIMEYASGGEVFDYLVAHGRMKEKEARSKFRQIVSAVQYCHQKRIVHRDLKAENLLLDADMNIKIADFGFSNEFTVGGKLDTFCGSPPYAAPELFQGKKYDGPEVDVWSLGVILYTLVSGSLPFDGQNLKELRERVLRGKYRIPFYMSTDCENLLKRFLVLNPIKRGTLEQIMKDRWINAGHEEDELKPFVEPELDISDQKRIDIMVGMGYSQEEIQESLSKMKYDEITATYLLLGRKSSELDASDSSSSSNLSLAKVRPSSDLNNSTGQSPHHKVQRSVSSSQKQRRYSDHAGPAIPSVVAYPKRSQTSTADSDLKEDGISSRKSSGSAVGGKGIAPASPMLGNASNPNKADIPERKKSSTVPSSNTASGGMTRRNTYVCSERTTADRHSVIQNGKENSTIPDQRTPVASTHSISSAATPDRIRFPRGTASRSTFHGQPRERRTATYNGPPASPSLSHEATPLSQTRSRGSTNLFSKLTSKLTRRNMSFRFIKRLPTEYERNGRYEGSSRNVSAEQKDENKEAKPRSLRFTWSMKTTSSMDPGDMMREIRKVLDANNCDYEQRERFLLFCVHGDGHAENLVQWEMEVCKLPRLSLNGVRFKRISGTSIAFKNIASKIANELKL
Method: as §1

BRSK2 = BRSK2 (Homo sapiens, UniProt Q8IWQ3); conditions: BRSK2, 10 μM
Method: as §1

MNK2 = MNK2 (Homo sapiens, UniProt Q9HBH9); conditions: MNK2, 10 μM
Method: as §1

WNK1 = WNK1 (Homo sapiens, UniProt Q9H4A3); conditions: WNK1, 10 μM
Method: as §1

GCK = GCK (Homo sapiens, UniProt Q12851)
Sequence of GCK (Q12851 whole entry): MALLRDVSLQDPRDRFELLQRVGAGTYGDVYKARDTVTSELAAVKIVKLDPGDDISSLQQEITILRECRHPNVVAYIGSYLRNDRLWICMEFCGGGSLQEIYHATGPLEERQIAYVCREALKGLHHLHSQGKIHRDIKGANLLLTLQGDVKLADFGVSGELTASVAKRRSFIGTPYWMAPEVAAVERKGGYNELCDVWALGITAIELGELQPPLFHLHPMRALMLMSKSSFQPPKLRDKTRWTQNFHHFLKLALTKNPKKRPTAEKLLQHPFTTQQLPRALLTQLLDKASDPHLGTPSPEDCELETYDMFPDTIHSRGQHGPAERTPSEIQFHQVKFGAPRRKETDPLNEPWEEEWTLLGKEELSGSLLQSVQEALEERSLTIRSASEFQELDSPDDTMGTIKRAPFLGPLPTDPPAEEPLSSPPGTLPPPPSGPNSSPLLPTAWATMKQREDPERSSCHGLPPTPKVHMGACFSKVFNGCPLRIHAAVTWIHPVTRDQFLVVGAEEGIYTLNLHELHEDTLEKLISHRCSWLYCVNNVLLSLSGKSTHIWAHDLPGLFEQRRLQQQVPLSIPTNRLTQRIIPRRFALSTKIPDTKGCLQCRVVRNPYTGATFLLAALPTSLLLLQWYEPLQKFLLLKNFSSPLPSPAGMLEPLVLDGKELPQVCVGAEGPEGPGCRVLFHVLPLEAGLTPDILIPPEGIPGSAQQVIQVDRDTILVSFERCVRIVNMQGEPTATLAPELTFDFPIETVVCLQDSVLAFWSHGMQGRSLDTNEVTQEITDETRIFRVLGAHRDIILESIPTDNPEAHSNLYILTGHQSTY
Method: as §1

FGF-R1 = FGF-R1 (Homo sapiens, UniProt P11362); conditions: FGF-R1, 10 μM
Method: as §1

DAPK1 = DAPK1 (Homo sapiens, UniProt P53355); conditions: DAPK1, 10 μM
Method: as §1

DYRK2 = DYRK2 (Homo sapiens, UniProt Q92630); conditions: DYRK2, 10 μM
Sequence of DYRK2 (Q92630 whole entry): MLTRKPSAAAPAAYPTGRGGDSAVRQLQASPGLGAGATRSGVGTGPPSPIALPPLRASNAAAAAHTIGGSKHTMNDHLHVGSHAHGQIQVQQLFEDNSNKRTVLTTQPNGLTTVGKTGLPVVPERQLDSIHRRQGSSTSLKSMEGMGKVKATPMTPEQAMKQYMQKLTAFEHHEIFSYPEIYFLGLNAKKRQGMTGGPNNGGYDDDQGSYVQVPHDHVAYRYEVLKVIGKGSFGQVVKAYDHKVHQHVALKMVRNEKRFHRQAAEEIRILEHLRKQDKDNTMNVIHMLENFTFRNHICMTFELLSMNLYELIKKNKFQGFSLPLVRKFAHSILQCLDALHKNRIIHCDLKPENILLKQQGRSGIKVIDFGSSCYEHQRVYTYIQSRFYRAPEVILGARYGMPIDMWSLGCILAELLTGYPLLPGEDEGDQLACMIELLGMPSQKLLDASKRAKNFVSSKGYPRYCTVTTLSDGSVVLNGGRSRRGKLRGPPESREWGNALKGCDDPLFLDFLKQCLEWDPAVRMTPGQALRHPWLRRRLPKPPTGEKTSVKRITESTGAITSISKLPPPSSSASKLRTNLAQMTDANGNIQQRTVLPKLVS
Method: as §1

EPH-B3 = EPH-B3 (Homo sapiens, UniProt P54753); conditions: EPH-B3, 10 μM
Method: as §1

SRPK1 = SRPK1 (Homo sapiens, UniProt Q96SB4); conditions: SRPK1, 10 μM
Method: as §1

PKCz = PKCz (Homo sapiens, UniProt Q05513)
Method: as §1

EF2K = EF2K (Homo sapiens, UniProt O00418)
Method: as §1

MAPKAP-K2 = MAPKAP-K2 (Homo sapiens, UniProt P49137); conditions: MAPKAP-K2, 10 μM
Method: as §1

For `CN(C)c1cc[n+](CCCCCCCCCCCC[n+]2ccc(N(C)C)cc2)cc1` [ICL-CCIC-0019], the remaining activity at 10 µM (CHK2) was 90%, the remaining activity at 10 µM (PAK2) was 107% and the remaining activity at 10 µM (CHK1) was 97%. The remaining activity at 10 µM (SmMLCK) was 104%, the remaining activity at 10 µM (IR) was 103% and the remaining activity at 10 µM (TSSK1) was 107%. For the same compound, the remaining activity at 10 µM (PIM2) was 103%, the remaining activity at 10 µM (EPH-A2) was 93% and the remaining activity at 10 µM (ERK2) was 103%. It also gave a remaining activity at 10 µM (IRAK1) of 89%, a remaining activity at 10 µM (IRR) of 92% and a remaining activity at 10 µM (CAMKKb) of 91%. The remaining activity at 10 µM (SIK3) was 102%, the remaining activity at 10 µM (SGK1) was 94% and the remaining activity at 10 µM (NEK6) was 86%. For the same compound, the remaining activity at 10 µM (JNK2) was 100%, the remaining activity at 10 µM (EPH-A4) was 124% and the remaining activity at 10 µM (MARK2) was 86%. The remaining activity at 10 µM (JNK1) was 98%, the remaining activity at 10 µM (LKB1) was 100% and the remaining activity at 10 µM (TESK1) was 101%. The remaining activity at 10 µM (IKKb) was 101%, the remaining activity at 10 µM (PKBa) was 101% and the remaining activity at 10 µM (MARK3) was 106%. The remaining activity at 10 µM (BRSK2) was 94%, the remaining activity at 10 µM (MNK2) was 96% and the remaining activity at 10 µM (WNK1) was 102%. It also gave a remaining activity at 10 µM (GCK) of 89%, a remaining activity at 10 µM (FGF-R1) of 92% and a remaining activity at 10 µM (DAPK1) of 96%. For the same compound, the remaining activity at 10 µM (DYRK2) was 96%, the remaining activity at 10 µM (EPH-B3) was 107% and the remaining activity at 10 µM (SRPK1) was 106%. It also gave a remaining activity at 10 µM (PKCz) of 106%, a remaining activity at 10 µM (EF2K) of 99% and a remaining activity at 10 µM (MAPKAP-K2) of 89%.

Source: PMC5095062, “The novel choline kinase inhibitor ICL-CCIC-0019 reprograms cellular metabolism and inhibits cancer cell growth” (Oncotarget, 2016)
